Experimental findings from US20250382305A1 (PTC THERAPEUTICS, INC., priority 2022, published 2025) are described below.

Bounds are passed on as bounds.

As a reminder, the IC50 is the concentration that inhibits the measured activity by half.

In assay [1] the test system is Total ATXN3 (tATXN3) protein. The assay can be described thus: Endogenous Total ATXN3 (tATXN3) Protein Assay (MSD immunoassay of cell lysates). In kind it is cell-based. To be noted: average IC50, total ATXN3 protein in cell lysate after 48 h with compound (Table 1). The procedure:
Endogenous Total ATXN3 (tATXN3) Protein Assay
Meso Scale Discovery (MSD) 96-well or 384-well plates were coated overnight at 4° C. with Ataxin 3 mouse monoclonal antibody (Invitrogen, MA3-082) at a concentration of 0.5 μg/mL in PBS (30 μL per well). Plates were then washed three times with 300 μL wash buffer (0.05% TWEEN®-20, polyethylene glycol sorbitan monolaurate, in PBS) and blocked (Meso Scale Diagnostics, R93BA-1; 5% BSA in PBS) for 2 h at RT with rotational shaking and then washed three times with wash buffer.
(§1) Test compounds were serially diluted 3.16-fold in 100% DMSO to generate a 7-point concentration curve. Aliquots of 0.5 μL of diluted compounds were transferred to a 96-well flat bottom plate by a liquid handler. An aliquot of 0.5 μL DMSO was also transferred to separate wells and used as controls. Duplicate samples were set up for each compound concentration and for the DMSO control.
Cells were thawed and incubated in cell culture media (DMEM, 10% FBS, and 1% antibiotic cocktail) for 72 h. Cells were trypsinized, counted, and re-suspended to a concentration of 100,000 cells/mL in cell culture media. A 100 μL aliquot of the cell suspensions were plated at 10,000 cells per well in the compound containing 96 well microtiter plate and incubated for in a cell culture incubator (37° C., 5% CO2, 100% relative humidity). After 48 h, the medium was removed and 50-100 μL of lysis buffer (Meso Scale Diagnostics, R60TX-2) containing 1× halt protease inhibitor cocktail of (Thermo Scientific, Halt™ Protease Inhibitor Cocktail, 78430) per well was added to cells to provide a “cell lysate”. The plate was placed on a shaker at 4° C. for 30 minutes, then stored at −80° C.
Cell lysate samples (25 μL) were transferred to the antibody-coated MSD plate and incubated overnight at 4° C. After removal of the lysates, the plate was washed three times with wash buffer, and 25 μL of Ataxin 3 recombinant rabbit monoclonal antibody (Invitrogen, #702788) secondary antibody (diluted to 0.25 μg/mL in 0.05% TWEEN®-20 in blocking buffer) was added to each well and incubated with shaking for 1-2 h at room temperature. Following incubation with the secondary antibody, the wells were rinsed with wash buffer and then 25 μL of Anti Rabbit Antibody Goat SULFO-TAG Labeled (Meso Scale Diagnostics, R32AB-1) detecting antibody (diluted to […] in 0.05% TWEEN®-20 in blocking buffer) was added to each well and incubated with shaking for 1 h at room temperature. After rinsing three times with wash buffer, 150 μL of Read Buffer T with surfactant (tris-based buffer containing tripropylamine, Meso Scale Diagnostics, R92TC-1) were added to each empty well, and the plate was imaged on a SI 6000 imager (MSD) according to manufacturers' instructions provided for 96- or 384-well plates.
(§2) An average IC50>1 μM is indicated by one star (*), between >0.3 μM and ≤1 μM is indicated by two stars (**), between >0.03 μM and ≤0.3 μM is indicated by three stars (***), and ≤0.03 μM is indicated by four stars (****).

A further assay has as its system ATXN3 pre-mRNA. The assay can be described thus: RT-qPCR Assay to Quantify Exon 4 Skipping in ATXN3 pre-mRNA in Cells. The following applies: percent exon 4 skipping in ATXN3 pre-mRNA, RT-qPCR of cell lysates; average IC50. Type of assay: cell-based. As to the method: RT-qPCR Assay to Quantify Exon 4 Skipping in ATXN3 pre-mRNA in Cells
as §1
Cells were thawed and incubated in cell culture media (DMEM, 10% FBS, and 1% antibiotic cocktail) for 72 h. Cells were trypsinized, counted, and re-suspended to a concentration of 100,000 cells/mL in cell culture media. A 100 μL aliquot of the cell suspensions were plated at 10,000 cells per well in the compound containing 96 well microtiter plate and incubated for in a cell culture incubator (37° C., 5% CO2, 100% relative humidity).
After 24 h, media was aspirated from the cells and 50 μL of the RCL2 lysis buffer (10 mM Tris-HCL pH 7.4, 150 mM NaCl, 0.33% IGEPAL® CA-630) was added to each well and incubated at RT for 1 min. Chilled nuclease free water (50 μL per well) was added and the plates were immediately transferred on ice. After 1 min on ice, plates were frozen at −80° C. overnight.
Preparation of RT-qPCR Reaction Mixture:
An aliquot of 2 μL/well of the cell lysates was transferred using the liquid handler to the Armadillo 384-Well PCR plate containing 8 μL/well of the RT-qPCR reaction mixture that was prepared as detailed above. The plates were then sealed with MicroAmp™ Optical Adhesive Film followed by spinning down for 1 min and placed in the CFX384 thermocycler (BioRad).
The RT-qPCR was carried out at the following temperatures for the indicated time: • Step 1: 48° C. (30 min) • Step 2: 95° C. (10 min) • Step 3: 95° C. (15 sec) • Step 4: 60° C. (1 min); then, repeated Steps 3 and 4 for a total of 40 cycles.
The percent exon 4 skipping was calculated for each dose of compound treatment using Equations 1 and 2.
Data were fit to a dose response curve and the IC50 was interpolated using XLfit® statistical and curve fitting package.
as §2

As to `Cc1c([C@H]2CCCC[C@@H]2N)sc2c(NCc3ccco3)nc(Cl)nc12` [Compound 60, 6-((1S,2S)-2-aminocyclohexyl)-2-chloro-N-(furan-2-ylmethyl)-7-methylthieno[3,2-d]pyrimidin-4-amine], the IC50 (in assay [1]; in the assay on ATXN3 pre-mRNA) was at most 30 nM in each case.
Take `N[C@H]1CCOC[C@@H]1c1sc2c(NCc3ccco3)cc(Cl)nc2c1Cl` [Compound 174, 2-((3R,4S)-4-aminotetrahydro-2H-pyran-3-yl)-3,5-dichloro-N-(furan-2-ylmethyl)thieno[3,2-b]pyridin-7-amine]: the IC50 (in assay [1]; in the assay with ATXN3 pre-mRNA) was at most 30 nM in each case.
Turning to `Cc1c([C@H]2CC=CC[C@@H]2N)sc2c(NCc3ccco3)cc(C#N)nc12` [Compound 289, 2-((1S,6S)-6-aminocyclohex-3-en-1-yl)-7-((furan-2-ylmethyl)amino)-3-methylthieno[3,2-b]pyridine-5-carbonitrile], the IC50 (in assay [1]; in the assay with ATXN3 pre-mRNA) was 30 to 300 nM throughout.
As for `N[C@@H]1CCCO[C@@H]1c1sc2c(NCc3cccs3)cc(Cl)nc2c1Br` [Compound 15, 2-((2S,3R)-3-aminotetrahydro-2H-pyran-2-yl)-3-bromo-5-chloro-N-(thiophen-2-ylmethyl)thieno[3,2-b]pyridin-7-amine], the half-inhibitory concentration (IC50) (in assay [1]; in the assay with ATXN3 pre-mRNA) was 300 to 1000 nM each time.
Take “6-((3R,4S)-3-aminotetrahydro-2H-pyran-4-yl)-2-chloro-N-(furan-2-ylmethyl)-7-((trimethylsilyl)ethynyl)thieno[3,2-d]pyrimidin-4-amine and 6-((3S,4R)-3-aminotetrahydro-2H-pyran-4-yl)-2-chloro-N-(furan-2-ylmethyl)-7-((trimethylsilyl)ethynyl)thieno[3,2-d]pyrimidin-4-amine [Compound 317]”: the half-inhibitory concentration (IC50) (in assay [1]; in the assay on ATXN3 pre-mRNA) was 30 to 300 nM throughout.
On to `C/C=C/CNc1cc(Cl)nc2c(Br)c([C@@H]3CC=CC[C@H]3N)sc12.C/C=C/CNc1cc(Cl)nc2c(Br)c([C@H]3CC=CC[C@@H]3N)sc12` (mixture of isomers) [Compound 300, 2-((1R,6R)-6-aminocyclohex-3-en-1-yl)-3-bromo-N-((E)-but-2-en-1-yl)-5-chlorothieno[3,2-b]pyridin-7-amine and 2-((1S,6S)-6-aminocyclohex-3-en-1-yl)-3-bromo-N-((E)-but-2-en-1-yl)-5-chlorothieno[3,2-b]pyridin-7-amine], for which the IC50 (in assay [1]; in the assay on ATXN3 pre-mRNA) was 30 to 300 nM throughout.
In the case of `Cc1c([C@@H]2CC=CC[C@H]2N)sc2c(NCc3ccncc3)nc(Cl)nc12` [Compound 436, 6-((1R,6R)-6-aminocyclohex-3-en-1-yl)-2-chloro-7-methyl-N-(pyridin-4-ylmethyl)thieno[3,2-d]pyrimidin-4-amine], the IC50 is over 1000 nM in assay [1] and 300 to 1000 nM in the assay on ATXN3 pre-mRNA.
The corresponding values for “6-((1R,6R)-6-aminocyclohex-3-en-1-yl-2,2,3,4,5,5-d6)-7-bromo-2-chloro-N-(furan-2-ylmethyl)thieno[3,2-d]pyrimidin-4-amine and 6-((1S,6S)-6-aminocyclohex-3-en-1-yl-2,2,3,4,5,5-d6)-7-bromo-2-chloro-N-(furan-2-ylmethyl)thieno[3,2-d]pyrimidin-4-amine [Compound 200]” are at most 30 nM and at most 30 nM.
In the same order, the values of `CC1=C(C)C[C@H](N)[C@@H](c2sc3c(NCc4ccco4)cc(Cl)nc3c2Cl)C1` [Compound 233, 2-((1S,6S)-6-amino-3,4-dimethylcyclohex-3-en-1-yl)-3,5-dichloro-N-(furan-2-ylmethyl)thieno[3,2-b]pyridin-7-amine] are at most 30 nM and at most 30 nM.
In the case of “6-((3R,4S)-3-aminotetrahydro-2H-pyran-4-yl)-7-bromo-2-chloro-N-(thiophen-2-ylmethyl)thieno[3,2-d]pyrimidin-4-amine and 6-((3S,4R)-3-aminotetrahydro-2H-pyran-4-yl)-7-bromo-2-chloro-N-(thiophen-2-ylmethyl)thieno[3,2-d]pyrimidin-4-amine [Compound 347]”, the IC50 (in assay [1]; in the assay with ATXN3 pre-mRNA) was 30 to 300 nM each time.
Take “2-((1R,5S,6S)-6-amino-5-methoxycyclohex-3-en-1-yl)-3-bromo-5-chloro-N-(thiophen-2-ylmethyl)thieno[3,2-b]pyridin-7-amine and 2-((1S,5R,6R)-6-amino-5-methoxycyclohex-3-en-1-yl)-3-bromo-5-chloro-N-(thiophen-2-ylmethyl)thieno[3,2-b]pyridin-7-amine [Compound 371]”: the IC50 (in assay [1]; in the assay on ATXN3 pre-mRNA) was 30 to 300 nM each time.
`N[C@@H]1CCC[C@@H]1c1sc2c(NCc3cccs3)cc(Cl)nc2c1Cl` [Compound 3, 2-((1S,2R)-2-aminocyclopentyl)-3,5-dichloro-N-(thiophen-2-ylmethyl)thieno[3,2-b]pyridin-7-amine]: the IC50 (in assay [1]; in the assay with ATXN3 pre-mRNA) was over 1000 nM in each case.
Consider `Cc1c([C@@H]2CC=CC[C@H]2N)sc2c(NCc3nccs3)nc(Cl)nc12` [Compound 441, 6-((1R,6R)-6-aminocyclohex-3-en-1-yl)-2-chloro-7-methyl-N-(thiazol-2-ylmethyl)thieno[3,2-d]pyrimidin-4-amine], for which the IC50 (in assay [1]; in the assay on ATXN3 pre-mRNA) was 30 to 300 nM in each case.
In the case of `N[C@@H]1CCCO[C@H]1c1sc2c(NCc3cccs3)cc(Cl)nc2c1Cl` [Compound 16, 2-((2R,3R)-3-aminotetrahydro-2H-pyran-2-yl)-3,5-dichloro-N-(thiophen-2-ylmethyl)thieno[3,2-b]pyridin-7-amine], the half-maximal inhibitory concentration (IC50) (in assay [1]; with ATXN3 pre-mRNA) was over 1000 nM in each case.
As for `N[C@H]1CCCC[C@@H]1c1sc2c(NCC3=CCCC3)cc(Cl)nc2c1Br` [Compound 361, 2-((1S,2S)-2-aminocyclohexyl)-3-bromo-5-chloro-N-(cyclopent-1-en-1-ylmethyl)thieno[3,2-b]pyridin-7-amine], the half-inhibitory concentration (IC50) (in assay [1]; in the assay on ATXN3 pre-mRNA) was 30 to 300 nM in each case.
On to `N[C@H]1CCCCC[C@@H]1c1cc2nc(Cl)cc(NCc3cccs3)c2s1` [Compound 90, 2-((1S,2S)-2-aminocycloheptyl)-5-chloro-N-(thiophen-2-ylmethyl)thieno[3,2-b]pyridin-7-amine], for which the IC50 (in assay [1]; in the assay on ATXN3 pre-mRNA) was 300 to 1000 nM throughout.
With `N[C@H]1CCCO[C@@H]1c1c(Cl)c2nc(Cl)nc(NCc3cccs3)c2n1C(F)F` [Compound 305, 6-((2S,3S)-3-aminotetrahydro-2H-pyran-2-yl)-2,7-dichloro-5-(difluoromethyl)-N-(thiophen-2-ylmethyl)-5H-pyrrolo[3,2-d]pyrimidin-4-amine], the IC50 (in assay [1]; in the assay with ATXN3 pre-mRNA) was 30 to 300 nM each time.
